Publication PMC4661928, “Production of Two Novel Methoxy-Isoflavones from Biotransformation of 8-Hydroxydaidzein by Recombinant Escherichia coli Expressing O-Methyltransferase SpOMT2884 from Streptomyces peucetius” (International Journal of Molecular Sciences, 2015)

Biological target: T1, SpOMT2884 (Streptomyces peucetius, UniProt T1WTM5)
T1 construct: gene OMT2884; codon-optimised synthetic gene in pETDuet-1 (NdeI/XhoI), expressed in E. coli BL21(DE3); whole-cell biotransformation, not purified
T1 sequence (T1WTM5 1-223): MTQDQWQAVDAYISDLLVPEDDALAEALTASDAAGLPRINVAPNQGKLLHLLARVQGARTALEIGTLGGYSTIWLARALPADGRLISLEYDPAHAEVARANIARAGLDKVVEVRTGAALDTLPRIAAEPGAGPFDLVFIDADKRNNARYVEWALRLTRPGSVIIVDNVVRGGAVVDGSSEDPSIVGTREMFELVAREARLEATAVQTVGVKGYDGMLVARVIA
Experiment: whole-cell biotransformation, UPLC; products by MS and NMR
Assay type: cell-based
Settings: recombinant E. coli BL21(DE3), 0.1 mM substrate, 37 °C, endogenous SAM; 7-O- and 8-O-methylation

For `O=c1c(-c2ccc(O)cc2)coc2c(O)c(O)ccc12` [8-hydroxydaidzein], the “whole-cell biotransformation, UPLC; products by MS and NMR” value was “SpOMT2884 catalyzes either 7-O-methylation or 8-O-methylation in 8-hydroxydaidzein”.
